Assay results as given in PMC9653409, “Generative deep learning enables the discovery of a potent and selective RIPK1 inhibitor” (Nature Communications, 2022).
Where two headings read alike, the source gives them in different places.

Experiments:
Experiment in all cases: Kinase inhibitory activity profiling of RI-962@10 µM (406 kinases, Eurofins)
Format in all cases: biochemical
[1] = target: panel of human kinases (kinase named in endpoint) (Homo sapiens, UniProt Q06187); settings: 10 µM; read-out: Activity (%), BTK(h)
How it was run: (§1)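 Radiometric filter-binding kinase assays: enzyme preincubated 15 min with compound in 8 mM MOPS pH 7.0, 0.2 mM EDTA, 250 μM peptide substrate, 10 mM magnesium acetate, 10 μM [γ-33P]-ATP. Reaction started with Mg/ATP, run 40 min at room temperature, stopped with phosphoric acid; 33P incorporation read by scintillation counting. Other kinases by similar protocols.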

[2] = target: panel of human kinases (kinase named in endpoint) (Homo sapiens, UniProt P00519, M351T); settings: 10 µM; read-out: Activity (%), Abl (M351T)(h)
How it was run: as §1

[3] = target: panel of human kinases (kinase named in endpoint) (Homo sapiens, UniProt Q05397); settings: 10 µM; read-out: Activity (%), FAK(h)
How it was run: as §1

[4] = target: panel of human kinases (kinase named in endpoint) (Homo sapiens, UniProt Q8TDR2); settings: 10 µM; read-out: Activity (%), CLIK1(h)
How it was run: as §1

[5] = target: panel of human kinases (kinase named in endpoint) (Homo sapiens, UniProt P35626); settings: 10 µM; read-out: Activity (%), GRK3(h)
How it was run: as §1

[6] = target: panel of human kinases (kinase named in endpoint) (Homo sapiens, UniProt Q92630); settings: 10 µM; read-out: Activity (%), DYRK2(h)
How it was run: as §1

[7] = target: panel of human kinases (kinase named in endpoint) (Homo sapiens, UniProt Q9UPE1); settings: 10 µM; read-out: Activity (%), MSSK1(h)
How it was run: as §1

[8] = target: panel of human kinases (kinase named in endpoint) (Homo sapiens, UniProt P11362); settings: 10 µM; read-out: Activity (%), FGFR1(h)
How it was run: as §1

[9] = target: panel of human kinases (kinase named in endpoint) (Homo sapiens, UniProt Q02763, Y897S); settings: 10 µM; read-out: Activity (%), Tie2(Y897S)(h)
How it was run: as §1

[10] = target: panel of human kinases (kinase named in endpoint) (Homo sapiens, UniProt P42345); settings: 10 µM
How it was run: as §1

[11] = target: panel of human kinases (kinase named in endpoint) (Homo sapiens, UniProt Q8NE63); settings: 10 µM; read-out: Activity (%), HIPK4(h)
How it was run: as §1

[12] = target: panel of human kinases (kinase named in endpoint) (Homo sapiens, UniProt P00533, L858R); settings: 10 µM; read-out: Activity (%), EGFR(L858R)(h)
How it was run: as §1

[13] = target: panel of human kinases (kinase named in endpoint) (Homo sapiens, UniProt Q9BYT3); settings: 10 µM; read-out: Activity (%), STK33(h)
How it was run: as §1

[14] = target: panel of human kinases (kinase named in endpoint) (Homo sapiens, UniProt P10398); settings: 10 µM; read-out: Activity (%), A-Raf(h)
How it was run: as §1

[15] = target: panel of human kinases (kinase named in endpoint) (Homo sapiens, UniProt Q8TDX7); settings: 10 µM; read-out: Activity (%), NEK7(h)
How it was run: as §1

[16] = target: panel of human kinases (kinase named in endpoint) (Homo sapiens, UniProt Q9H4A3); settings: 10 µM; read-out: Activity (%), WNK1(h)
How it was run: as §1

[17] = target: panel of human kinases (kinase named in endpoint) (Homo sapiens, UniProt Q8IVW4); settings: 10 µM; read-out: Activity (%), CDKL3(h)
How it was run: as §1

[18] = target: panel of human kinases (kinase named in endpoint) (Homo sapiens, UniProt Q13188); settings: 10 µM; read-out: Activity (%), MST2(h)
How it was run: as §1

[19] = target: panel of human kinases (kinase named in endpoint) (Homo sapiens, UniProt Q86UE8); settings: 10 µM; read-out: Activity (%), TLK2(h)
How it was run: as §1

[20] = target: panel of human kinases (kinase named in endpoint) (Homo sapiens, UniProt Q16288); settings: 10 µM; read-out: Activity (%), TrkC(h)
How it was run: as §1

[21] = target: panel of human kinases (kinase named in endpoint) (Homo sapiens, UniProt Q6IQ55); settings: 10 µM; read-out: Activity (%), TTBK2(h)
How it was run: as §1

[22] = target: panel of human kinases (kinase named in endpoint) (Homo sapiens, UniProt P11802); settings: 10 µM; read-out: Activity (%), CDK4/cyclinD3(h)
How it was run: as §1

[23] = target: panel of human kinases (kinase named in endpoint) (Homo sapiens, UniProt Q9UQM7); settings: 10 µM; read-out: Activity (%), CaMKIIα(h)
How it was run: as §1

[24] = target: panel of human kinases (kinase named in endpoint) (Homo sapiens, UniProt P04049); settings: 10 µM; read-out: Activity (%), c-RAF(h)
How it was run: as §1

[25] = target: panel of human kinases (kinase named in endpoint) (Homo sapiens, UniProt P46734); settings: 10 µM; read-out: Activity (%), MKK3(h)
How it was run: as §1

panel of human kinases (kinase named in endpoint) (Homo sapiens, UniProt P11802), sequence (P11802 whole entry): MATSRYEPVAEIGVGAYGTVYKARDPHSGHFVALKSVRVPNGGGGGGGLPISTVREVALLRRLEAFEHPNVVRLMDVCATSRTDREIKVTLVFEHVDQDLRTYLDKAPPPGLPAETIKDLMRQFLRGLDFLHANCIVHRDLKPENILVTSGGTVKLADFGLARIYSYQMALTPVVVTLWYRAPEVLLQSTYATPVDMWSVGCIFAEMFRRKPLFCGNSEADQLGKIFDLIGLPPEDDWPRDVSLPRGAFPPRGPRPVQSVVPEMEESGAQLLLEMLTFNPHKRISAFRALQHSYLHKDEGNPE
panel of human kinases (kinase named in endpoint) (Homo sapiens, UniProt Q9H4A3), sequence (Q9H4A3 whole entry): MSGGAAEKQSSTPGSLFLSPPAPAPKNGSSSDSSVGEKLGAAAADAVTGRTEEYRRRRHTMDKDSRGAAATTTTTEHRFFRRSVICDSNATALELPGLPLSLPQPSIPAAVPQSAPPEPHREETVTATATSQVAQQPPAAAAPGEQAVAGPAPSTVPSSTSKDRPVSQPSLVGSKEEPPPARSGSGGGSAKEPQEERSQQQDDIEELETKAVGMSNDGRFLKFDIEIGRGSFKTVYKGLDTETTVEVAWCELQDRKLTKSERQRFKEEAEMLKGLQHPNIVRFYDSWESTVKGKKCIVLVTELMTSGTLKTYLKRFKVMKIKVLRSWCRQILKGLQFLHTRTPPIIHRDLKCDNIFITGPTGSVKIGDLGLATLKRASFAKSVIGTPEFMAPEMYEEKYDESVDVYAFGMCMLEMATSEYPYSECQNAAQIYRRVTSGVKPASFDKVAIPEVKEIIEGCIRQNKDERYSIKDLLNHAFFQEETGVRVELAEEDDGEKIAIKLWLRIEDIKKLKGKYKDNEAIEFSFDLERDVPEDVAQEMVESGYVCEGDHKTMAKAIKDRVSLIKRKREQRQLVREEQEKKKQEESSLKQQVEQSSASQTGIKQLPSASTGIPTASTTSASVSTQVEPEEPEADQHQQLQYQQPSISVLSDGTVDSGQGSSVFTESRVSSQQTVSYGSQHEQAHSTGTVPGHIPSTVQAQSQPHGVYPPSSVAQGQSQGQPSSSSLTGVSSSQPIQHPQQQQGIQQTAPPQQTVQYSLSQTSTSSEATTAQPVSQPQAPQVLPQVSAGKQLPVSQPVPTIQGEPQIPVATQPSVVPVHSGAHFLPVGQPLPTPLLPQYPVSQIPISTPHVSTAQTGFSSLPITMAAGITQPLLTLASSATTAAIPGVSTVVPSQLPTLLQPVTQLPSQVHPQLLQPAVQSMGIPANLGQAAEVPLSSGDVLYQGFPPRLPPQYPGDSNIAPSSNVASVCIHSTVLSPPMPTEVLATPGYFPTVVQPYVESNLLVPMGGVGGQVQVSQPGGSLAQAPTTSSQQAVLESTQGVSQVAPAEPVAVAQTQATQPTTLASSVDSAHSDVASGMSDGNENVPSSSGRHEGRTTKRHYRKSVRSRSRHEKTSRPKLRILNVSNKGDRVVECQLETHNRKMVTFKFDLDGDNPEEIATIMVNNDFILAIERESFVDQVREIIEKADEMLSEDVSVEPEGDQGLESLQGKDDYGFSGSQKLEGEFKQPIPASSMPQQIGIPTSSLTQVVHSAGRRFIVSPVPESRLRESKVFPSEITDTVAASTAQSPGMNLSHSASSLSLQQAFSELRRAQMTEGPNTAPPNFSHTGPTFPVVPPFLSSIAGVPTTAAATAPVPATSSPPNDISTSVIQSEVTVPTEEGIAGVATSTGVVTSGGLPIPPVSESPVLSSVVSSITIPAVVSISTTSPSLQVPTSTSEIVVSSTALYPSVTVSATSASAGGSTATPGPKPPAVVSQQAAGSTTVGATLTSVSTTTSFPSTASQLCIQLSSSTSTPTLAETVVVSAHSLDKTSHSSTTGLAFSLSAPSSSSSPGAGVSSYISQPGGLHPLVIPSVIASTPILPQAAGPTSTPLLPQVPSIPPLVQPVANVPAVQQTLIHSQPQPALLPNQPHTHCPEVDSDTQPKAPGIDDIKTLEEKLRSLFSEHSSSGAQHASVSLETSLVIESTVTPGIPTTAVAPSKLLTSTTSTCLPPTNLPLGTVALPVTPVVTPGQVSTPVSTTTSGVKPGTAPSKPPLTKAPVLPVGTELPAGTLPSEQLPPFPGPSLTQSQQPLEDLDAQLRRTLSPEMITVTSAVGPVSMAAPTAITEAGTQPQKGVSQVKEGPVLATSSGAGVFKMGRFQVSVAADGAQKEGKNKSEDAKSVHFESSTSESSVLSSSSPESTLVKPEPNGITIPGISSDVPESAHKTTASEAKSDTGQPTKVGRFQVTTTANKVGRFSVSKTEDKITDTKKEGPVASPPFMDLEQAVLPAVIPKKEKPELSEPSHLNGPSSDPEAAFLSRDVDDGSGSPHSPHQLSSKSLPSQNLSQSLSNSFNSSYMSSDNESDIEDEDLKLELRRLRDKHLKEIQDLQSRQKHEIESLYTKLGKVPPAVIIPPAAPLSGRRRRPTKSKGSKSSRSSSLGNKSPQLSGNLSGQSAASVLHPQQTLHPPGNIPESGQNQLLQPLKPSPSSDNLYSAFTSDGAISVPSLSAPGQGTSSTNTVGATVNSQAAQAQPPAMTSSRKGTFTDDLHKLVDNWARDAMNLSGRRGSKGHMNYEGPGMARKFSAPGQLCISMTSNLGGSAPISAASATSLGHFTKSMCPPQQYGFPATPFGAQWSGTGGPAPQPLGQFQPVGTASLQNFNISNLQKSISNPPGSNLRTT
panel of human kinases (kinase named in endpoint) (Homo sapiens, UniProt P10398), sequence (P10398 whole entry): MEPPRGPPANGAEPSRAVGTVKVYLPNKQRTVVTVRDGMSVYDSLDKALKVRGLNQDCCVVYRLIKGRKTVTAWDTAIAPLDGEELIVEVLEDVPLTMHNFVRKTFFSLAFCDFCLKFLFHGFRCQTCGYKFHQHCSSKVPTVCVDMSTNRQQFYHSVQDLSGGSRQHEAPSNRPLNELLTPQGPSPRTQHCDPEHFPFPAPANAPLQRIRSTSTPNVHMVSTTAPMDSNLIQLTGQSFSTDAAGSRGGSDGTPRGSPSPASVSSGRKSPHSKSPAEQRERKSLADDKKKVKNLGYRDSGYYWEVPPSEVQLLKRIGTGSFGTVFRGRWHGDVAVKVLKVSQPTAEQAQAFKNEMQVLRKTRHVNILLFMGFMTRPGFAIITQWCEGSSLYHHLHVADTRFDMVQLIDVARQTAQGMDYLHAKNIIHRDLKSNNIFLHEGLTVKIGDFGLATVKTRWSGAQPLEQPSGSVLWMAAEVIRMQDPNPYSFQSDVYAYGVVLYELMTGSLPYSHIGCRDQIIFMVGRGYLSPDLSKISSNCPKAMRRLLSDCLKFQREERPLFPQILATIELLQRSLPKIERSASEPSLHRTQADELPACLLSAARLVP
panel of human kinases (kinase named in endpoint) (Homo sapiens, UniProt Q9UQM7), sequence (Q9UQM7 whole entry): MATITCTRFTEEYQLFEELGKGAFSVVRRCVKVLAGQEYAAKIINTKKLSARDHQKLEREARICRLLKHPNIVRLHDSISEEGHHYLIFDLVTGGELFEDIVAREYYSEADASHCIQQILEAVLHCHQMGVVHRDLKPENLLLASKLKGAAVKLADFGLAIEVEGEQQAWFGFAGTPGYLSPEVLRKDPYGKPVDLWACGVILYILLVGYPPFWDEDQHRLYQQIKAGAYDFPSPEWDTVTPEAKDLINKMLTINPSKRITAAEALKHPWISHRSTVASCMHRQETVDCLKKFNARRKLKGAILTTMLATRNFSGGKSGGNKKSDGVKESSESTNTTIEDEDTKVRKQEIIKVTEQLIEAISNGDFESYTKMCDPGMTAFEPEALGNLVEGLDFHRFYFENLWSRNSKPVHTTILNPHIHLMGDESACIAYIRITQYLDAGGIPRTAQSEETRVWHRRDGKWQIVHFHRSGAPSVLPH
panel of human kinases (kinase named in endpoint) (Homo sapiens, UniProt Q8NE63), sequence (Q8NE63 whole entry): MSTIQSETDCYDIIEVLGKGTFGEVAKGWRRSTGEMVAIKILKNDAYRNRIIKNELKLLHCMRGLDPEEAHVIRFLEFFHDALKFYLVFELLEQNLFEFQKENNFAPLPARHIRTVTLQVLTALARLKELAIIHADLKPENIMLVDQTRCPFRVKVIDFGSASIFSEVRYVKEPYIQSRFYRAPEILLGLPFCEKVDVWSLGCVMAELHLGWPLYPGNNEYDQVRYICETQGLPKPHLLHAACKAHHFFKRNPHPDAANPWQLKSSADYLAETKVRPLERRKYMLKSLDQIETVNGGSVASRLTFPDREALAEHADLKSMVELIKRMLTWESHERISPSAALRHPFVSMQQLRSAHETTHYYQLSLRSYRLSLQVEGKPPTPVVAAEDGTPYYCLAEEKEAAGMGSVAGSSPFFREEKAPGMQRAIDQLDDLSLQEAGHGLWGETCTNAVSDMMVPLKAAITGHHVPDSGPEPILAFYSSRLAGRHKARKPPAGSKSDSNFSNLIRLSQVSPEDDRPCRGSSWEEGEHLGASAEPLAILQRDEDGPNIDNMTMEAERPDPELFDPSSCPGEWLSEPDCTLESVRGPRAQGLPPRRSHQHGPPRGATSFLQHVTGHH
panel of human kinases (kinase named in endpoint) (Homo sapiens, UniProt P04049), sequence (P04049 whole entry): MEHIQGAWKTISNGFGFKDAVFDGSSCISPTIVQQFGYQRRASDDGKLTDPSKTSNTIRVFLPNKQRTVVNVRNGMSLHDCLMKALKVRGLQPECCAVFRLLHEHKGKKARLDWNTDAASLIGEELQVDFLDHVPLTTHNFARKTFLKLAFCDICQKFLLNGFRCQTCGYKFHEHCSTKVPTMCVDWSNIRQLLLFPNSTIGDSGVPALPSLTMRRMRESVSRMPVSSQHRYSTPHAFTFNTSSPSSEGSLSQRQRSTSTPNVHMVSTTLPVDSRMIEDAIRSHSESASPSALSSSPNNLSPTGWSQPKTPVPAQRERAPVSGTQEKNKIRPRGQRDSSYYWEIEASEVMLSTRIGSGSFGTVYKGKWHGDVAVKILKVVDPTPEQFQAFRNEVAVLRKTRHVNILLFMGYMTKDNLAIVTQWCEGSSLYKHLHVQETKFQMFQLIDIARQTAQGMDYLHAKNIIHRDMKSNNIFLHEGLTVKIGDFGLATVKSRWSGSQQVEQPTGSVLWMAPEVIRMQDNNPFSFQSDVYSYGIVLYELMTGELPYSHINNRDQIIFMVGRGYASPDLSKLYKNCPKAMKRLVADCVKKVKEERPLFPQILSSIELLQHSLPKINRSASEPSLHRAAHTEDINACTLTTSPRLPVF

CC(C)C(=O)Nc1nc2cc(-c3ccc4c(c3)c(C(=O)NC(C)c3ccccc3)cn4C)ccn2n1 (centres unmarked) [RI-962] gave an activity at 10 µM [1] of 92%, an activity at 10 µM [2] of 121% and an activity at 10 µM [3] of 108%. It also gave an activity at 10 µM [4] of 132%, an activity at 10 µM [5] of 92% and an activity at 10 µM [6] of 92%. For the same compound, the activity at 10 µM [7] was 85%, the activity at 10 µM [8] was 81% and the activity at 10 µM [9] was 69%. It also gave an activity at 10 µM ([10]; read-out: Activity (%), mTOR(h)) of 87%, an activity at 10 µM ([10]; read-out: Activity (%), mTOR/FKBP12(h)) of 98% and an activity at 10 µM [11] of 71%. It also gave an activity at 10 µM [12] of 93%, an activity at 10 µM [13] of 85% and an activity at 10 µM [14] of 80%. For the same compound, the activity at 10 µM [15] was 85%, the activity at 10 µM [16] was 75% and the activity at 10 µM [17] was 84%. The activity at 10 µM [18] was 64%, the activity at 10 µM [19] was 78% and the activity at 10 µM [20] was 56%. For the same compound, the activity at 10 µM [21] was 81%, the activity at 10 µM [22] was 75% and the activity at 10 µM [23] was 93%. The activity at 10 µM [24] was 114% and the activity at 10 µM [25] was 103%.
